# Read-outs that look alike come from different tables or passages of the source.
# What was measured:
# [1] = target: T1, full-length SHP2 (His6-tagged SHP2(2-527)) (Homo sapiens, UniProt Q06124); assay: SHP2 Enzymatic Assay (fluorescence intensity kinetic assay, DiFMUP hydrolysis); assay type: biochemical
# T1 construct: His6-tagged SHP2(2-527); His6; made in house; host or cells: E. coli
# How it was run: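 1 nM His6-SHP2(2-527), activated by 1 μM bis-phosphopeptide, hydrolysed 50 μM DiFMUP in 25 mM HEPES pH 7.4 with 1 mM DTT, 50 mM KCl and 2% DMSO. DiFMU fluorescence (Ex 355/Em 460 nm) was read kinetically for 15 min at ambient temperature.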
# [2] = system: ERK1/2 (Thr202/Tyr204) phosphorylation in KYSE520 cells; assay: Cellular Phospho-p44/42 MAPK (Erk 1/2) (Thr202/Tyr204) Assay (In-Cell Western); assay type: cell-based; settings: Homo sapiens, KYSE-520, 1 h, read-out: Biological Example 2 IC50 (nM)
# Protocol: KYSE520 cells were obtained from DSMZ and grown in RPMI supplemented with 10% fetal bovine serum, pennicillin/streptomycin, 2 mM L-alanyl-L-glutamine dipeptide in 0.85% NaCl (Glutamax™), non-essential amino acids, and sodium pyruvate. Cells were plated in 96-well plates at 30,000 cells/well and allowed to attach overnight at 37° C./5% CO2. Cells were treated with compounds prepared as a 10-point, 1:3 dilution series (range: 20 μM-1 nM), with a final DMSO concentration of 0.5%. After 1 hour incubation, cells were fixed in 3.7% formaldehyde in Dulbecco's phosphate-buffered saline (“dPBS”) at room temperature for 20 minutes. Cells were then washed with dPBS and permeabilized in 100% MeOH at room temperature for 10 minutes. Following permeabilization, cells were washed in dPBS and incubated in LI-COR Blocking Buffer (LI-COR Biosciences, Cat #927-40000) for 1 hour or longer. Plates were then incubated with an antibody specific for the MEK-dependent ERK1/2 phosphorylation sites, threonine 202 and tyrosine 204 (Cell Signaling Technologies; Cat #9101), downstream of SHP2 in the MAP kinase signal transduction pathway, as well as GAPDH (Millipore; Cat #MAB374). pErk1/2 (Thr202/Tyr204) antibody was diluted in LI-COR blocking buffer containing 0.05% polysorbate-20 (Tween-20) at 1:250; GAPDH was diluted at 1:2,500. The plates were incubated overnight at 4° C. After washing with PBS/0.05% Tween-20, the cells were incubated with fluorescently-labeled secondary antibodies (Anti-rabbit-Alexa Flour680, Invitrogen Cat #A21109; Anti-mouse-IRDye800CW, Li-cor Bioscieces Cat #926-32210, both at 1:1000 dilution) for 1 hour. Cells were then washed, as above, and analyzed for fluorescence at both 680 nm and 800 nm wavelengths using the Aerius Infrared Imaging System (LI-COR Biosciences, Model 9250). Phosphorylated Erk1/2 (Thr202/Tyr204) signal was normalized to GAPDH signal for each well. IC50 values were calculated from the normalized values using a 4-parameter fit in BioAssay software. […] The reported IC50 in Table 2 may be from a single assay or the mean of multiple assays.
# T1 sequence (Q06124 2-527): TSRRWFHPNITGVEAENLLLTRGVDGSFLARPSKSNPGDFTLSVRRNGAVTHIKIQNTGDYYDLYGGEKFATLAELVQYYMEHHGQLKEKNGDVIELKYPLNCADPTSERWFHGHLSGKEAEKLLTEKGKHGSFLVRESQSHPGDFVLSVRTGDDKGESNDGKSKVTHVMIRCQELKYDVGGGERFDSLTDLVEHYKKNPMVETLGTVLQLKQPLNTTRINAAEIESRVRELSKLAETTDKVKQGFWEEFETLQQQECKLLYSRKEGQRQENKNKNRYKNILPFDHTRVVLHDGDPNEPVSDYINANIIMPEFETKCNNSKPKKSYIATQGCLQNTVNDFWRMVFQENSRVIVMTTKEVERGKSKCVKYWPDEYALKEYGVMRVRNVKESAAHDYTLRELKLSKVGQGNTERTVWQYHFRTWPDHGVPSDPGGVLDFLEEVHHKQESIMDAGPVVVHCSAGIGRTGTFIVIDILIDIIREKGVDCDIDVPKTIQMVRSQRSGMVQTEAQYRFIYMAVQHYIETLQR
structure (smiles),measurement,setting,value
"N[C@@H]1c2ccccc2CC12CCN(c1cnc3nc(Sc4ccnc5c4C(F)(F)C(=O)N5)ccc3n1)CC2 [Example 142, (S)-4-((2-(1-amino-1,3-dihydrospiro[indene-2,4′-piperidin]-1′-yl)pyrido[2,3-b]pyrazin-6-yl)thio)-3,3-difluoro-1,3-dihydro-2H-pyrrolo[2,3-b]pyridin-2-one]",IC50,[1],26 nM
same,IC50,[2],4 nM
"N[C@@H]1c2cccnc2CC12CCN(c1cnc3nc(Sc4cccnc4C(F)(F)F)ccc3n1)CC2 [Example 163, (S)-1′-(6-((2-(trifluoromethyl)pyridin-3-yl)thio)pyrido[2,3-b]pyrazin-2-yl)-5,7-dihydrospiro[cyclopenta[b]pyridine-6,4′-piperidin]-5-amine]",IC50,[1],52 nM
same,IC50,[2],30 nM
"Cc1ccc2c(c1)[C@@H](N)C1(CCN(c3cnc4nc(Sc5ccnc(N)c5Cl)ccc4n3)CC1)C2 [Example 178, (S)-1′-(6-((2-amino-3-chloropyridin-4-yl)thio)pyrido[2,3-b]pyrazin-2-yl)-6-methyl-1,3-dihydrospiro[indene-2,4′-piperidin]-1-amine]",IC50,"[1]; full-length SHP2 with 1 μM activating peptide, 50 μM DiFMUP, single assay or mean of multiple assays, read-out: Biological Example 1 IC50",57 nM
same,IC50,[2],17 nM
"C[C@@H]1OCC2(CCN(c3cnc4nc(Sc5ccnc(NCCO)c5Cl)ccc4n3)CC2)[C@@H]1N [Example 185, 2-((4-((2-((3S,4S)-4-amino-3-methyl-2-oxa-8-azaspiro[4.5]decan-8-yl)pyrido[2,3-b]pyrazin-6-yl)thio)-3-chloropyridin-2-yl)amino)ethan-1-ol]",IC50,[1],408 nM
same,IC50,[2],166 nM
"C[C@@H]1OCC2(CCN(c3cnc4nc(Sc5ccnc6[nH]ccc56)ccc4n3)CC2)[C@@H]1N [Example 189, (3S,4S)-8-(6-((1H-pyrrolo[2,3-b]pyridin-4-yl)thio)pyrido[2,3-b]pyrazin-2-yl)-3-methyl-2-oxa-8-azaspiro[4.5]decan-4-amine]",IC50,[1],59 nM
same,IC50,[2],98 nM
"Nc1nccc(Sc2ccc3nc(N4CC5CC(C4)N5)cnc3n2)c1Cl [Example 200, 4-((2-(3,6-diazabicyclo[3.1.1]heptan-3-yl)pyrido[2,3-b]pyrazin-6-yl)thio)-3-chloropyridin-2-amine]",IC50,[1],48 nM
same,IC50,[2],122 nM
"N[C@@H]1c2cccnc2CC12CCN(c1cnc3nc(Sc4ccnc(N5CC[C@H](CO)C5)c4Cl)ccc3n1)CC2 [Example 210, ((S)-1-(4-((2-((S)-5-amino-5,7-dihydrospiro[cyclopenta[b]pyridine-6,4′-piperidin]-1′-yl)pyrido[2,3-b]pyrazin-6-yl)thio)-3-chloropyridin-2-yl)pyrrolidin-3-yl)methanol]",IC50,[1],63 nM
same,IC50,[2],16 nM
